# Data published in patent US5132299A, “11β-phenyl-4,9,15-estratrienes, their manufacture and pharmaceutical preparations containing same” (Schering Aktiengesellschaft, priority 1987, dated 1992).
# Experiments:
# [1] = tested on: pregnant rats; assay: Abortive test with pregnant rats (antigestagenic effect); type: in vivo, rat; conditions: for Abortion Rate n aborting/n treated rats: d5-d7 p.c., autopsy d9 p.c.; for abortive effect in words: dose of 0.3 mg, pregnant rats s.c.; for factor by which more effective than RU 486 (C) in the abortive test: pregnant rats, s.c.
# Experimental: The abortifacient activity was determined to define the antigestagenic effect. The tests were carried out on female rats with a weight of approx. 200 g. […] The date on which sperm are detected was considered the 1st day of pregnancy (=dl p.c.). The animals were treated with the substance to be tested or the solvent after nidation of the blastocysts from d5 p.c. to d7 p.c. The animals were killed on d9 p.c. and the uteri were checked for implants and points of resorption. Photos were made of all uteri. Lack of implants was considered as abortions. The test substances were dissolved in a mixture of benzylbenzoate and castor oil (ratio of 1:4). The vehicle volume per individual dose amounted to 0.2 ml. Treatment was subcutaneous (s.c.).
# [2] = tested on: guinea pigs; assay: Abortive effect in guinea pigs; type: in vivo, guinea pig
# Experimental: The abortive effect of the substances in accordance with the invention (A) and (B) was also determined using guinea pigs as test animals.
# The test results gained from guinea pigs permit more reliable predictions to be made on the abortive activity of the tested compound(s) to be expected in the case of humans than is permitted by the data gained with rats.
# [3] = tested on: tyrosine amino-transferase (TAT) in RHC (Rat Hepatoma Cells); assay: Antiglucocorticoid activity: tyrosine amino-transferase (TAT) induction in RHC cultures; type: cell-based; conditions: for antiglucocorticoid activity as % of the activity of the standard compound RU 486 (C): TAT test in RHC, simultaneous treatment with corticoid; for EC (max): Rattus norvegicus, read-out: concentration of max. TAT activity (induction)
# Experimental: To identify the antiglucocorticoid activity, the effect of the substances in accordance with the invention on the tyrosine amino-transferase was determined. The test system is based on measurement of the activity of the liver enzyme tyrosine amino-transferase (TAT) in cultures of RHC (Rat Hepatoma Cells). The enzyme catalyzes the first step in the metabolism of tyrosine and can be induced by glucocorticoids both in the liver and in hepatoma cells. The activity is easy to measure in raw extracts (Granner and Tomkins, (1970) Meth. Enzymol. 15, 633). The enzyme converts the amino group of tyrosine to 2-oxoglutaric acid. Glutaminic acid and p-hydroxy-phenylpyruvate are formed. […] Its measured absorption lies at 331 nm. […] The activity can be stimulated by a factor of 4 to 6 above basal value. Simultaneous treatment with corticoid and antiglucocorticoid leads to a decrease in the TAT activity.
# [4] = biological target: T1, gestagen receptor (Oryctolagus cuniculus, UniProt P06186); assay: Gestagen receptor binding test (3H-progesterone displacement, rabbit uterus cytosol)
# T1 sequence (P06186 1-930): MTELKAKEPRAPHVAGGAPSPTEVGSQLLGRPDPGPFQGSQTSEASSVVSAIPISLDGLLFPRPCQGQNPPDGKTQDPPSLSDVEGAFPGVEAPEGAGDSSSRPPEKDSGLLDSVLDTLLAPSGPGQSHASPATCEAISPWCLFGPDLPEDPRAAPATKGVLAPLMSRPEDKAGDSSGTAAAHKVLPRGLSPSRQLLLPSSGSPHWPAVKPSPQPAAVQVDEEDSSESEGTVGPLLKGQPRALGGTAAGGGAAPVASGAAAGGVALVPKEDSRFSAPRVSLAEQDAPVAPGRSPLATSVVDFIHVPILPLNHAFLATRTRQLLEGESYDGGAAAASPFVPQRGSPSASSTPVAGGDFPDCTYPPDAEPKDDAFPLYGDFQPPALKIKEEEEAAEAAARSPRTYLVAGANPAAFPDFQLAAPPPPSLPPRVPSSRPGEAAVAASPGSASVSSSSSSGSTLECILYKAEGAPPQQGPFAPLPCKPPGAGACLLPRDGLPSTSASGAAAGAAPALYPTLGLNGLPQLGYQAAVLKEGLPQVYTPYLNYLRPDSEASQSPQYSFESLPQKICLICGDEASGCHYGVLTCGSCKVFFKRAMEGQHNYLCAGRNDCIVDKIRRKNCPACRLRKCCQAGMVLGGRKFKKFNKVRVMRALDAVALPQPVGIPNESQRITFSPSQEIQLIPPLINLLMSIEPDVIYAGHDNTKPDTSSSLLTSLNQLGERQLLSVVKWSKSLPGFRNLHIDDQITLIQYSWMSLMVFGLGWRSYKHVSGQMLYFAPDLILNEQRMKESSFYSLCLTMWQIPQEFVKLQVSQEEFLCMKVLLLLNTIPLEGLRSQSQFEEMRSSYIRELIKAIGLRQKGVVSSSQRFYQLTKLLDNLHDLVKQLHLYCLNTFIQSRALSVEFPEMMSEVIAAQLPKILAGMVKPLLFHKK
# Experimental: The affinity of the compounds in accordance with the invention to the gestagen receptor is examined with the gestagen receptor binding test. In this test the displacement of the agonist by the antagonist is measured. Cytosol from rabbit uterus homogenate which contains the receptor molecule (a protein) is used in the test. This binds progesterone with high affinity and low capacity. When these receptors are charged with ^3 H-progesterone in the presence of the unlabeled substance to be tested, the extent to which the ^3 H-progesterone is displaced from the receptor depends on the concentration and binding affinity of the compound to be tested. After separation of the receptor-bound progesterone from the non-bound progesterone, the binding can be determined as a percentage and this value plotted against the log of the molar concentration of the test substance. Characteristic dosage-dependent displacement curves are obtained and the concentration of the test substance can be determined which is required to oust the reference substance […] from the receptor.
strength in the gestagen receptor binding test compared with standard compound (C) [4],Structure (SMILES),Abortion Rate n aborting/n treated rats ([1]; 0.3 mg/animal/day s.c.),Abortion Rate n aborting/n treated rats ([1]; 1.0 mg/animal/day s.c.),Abortion Rate n aborting/n treated rats ([1]; 3.0 mg/animal/day s.c.),abortive effect in words [1],factor by which more effective than RU 486 (C) in the abortive test [1],abortifacient effect compared with compound (D) [2],antiglucocorticoid activity as % of the activity of the standard compound RU 486 (C) [3],EC (max) [3]
much stronger,"CC#C[C@]1(O)C=C[C@H]2[C@@H]3CCC4=CC(=O)CCC4=C3[C@@H](c3ccc(C(C)=O)cc3)C[C@@]21C [A, 11β-(4-acetylphenyl)-17β-hydroxy-17α-(prop-1-inyl)-4,9,15-estratrien-3-one]",4/4,4/4,4/4,fully abortive,10,strikingly higher abortifacient effect,20-50%,–
about the same strength,"C#CC[C@]1(O)C=C[C@H]2[C@@H]3CCC4=CC(=O)CCC4=C3[C@@H](c3ccc(C(C)=O)cc3)C[C@@]21C [B, 11β-(4-acetylphenyl)-17β-hydroxy-17α-(prop-2-inyl)-4,9,15-estratrien-3-one]",4/4,4/4,4/4,fully abortive,10,strikingly higher abortifacient effect,less than 1%,–
–,"CC#C[C@]1(O)CC[C@H]2[C@@H]3CCC4=CC(=O)CCC4=C3[C@@H](c3ccc(N(C)C)cc3)C[C@@]21C [C, 11β-(4-dimethylaminophenyl)-17β-hydroxy-17α-(prop-1-inyl)-4,9,(10)-estradien-3-one, reference compound]",0/4,2/4,4/4,–,–,–,–,–
–,"CC#C[C@]1(O)CC[C@H]2[C@@H]3CCC4=CC(=O)CCC4=C3[C@@H](c3ccc(C(C)=O)cc3)C[C@@]21C [D, 11β-(4-acetylphenyl)-17β-hydroxy-17α-(prop-1-inyl)-4,9-estradien-3-one, reference compound]",4/4,4/4,4/4,–,–,–,–,–
–,"C[C@]12CCC(=O)C=C1CC[C@@H]1[C@@H]2[C@@H](O)C[C@@]2(C)[C@H]1CC[C@]2(O)C(=O)CO [cortisol, reference compound]",–,–,–,–,–,–,–,1 µM
–,"C[C@@H]1C[C@H]2[C@@H]3CCC4=CC(=O)C=C[C@]4(C)[C@@]3(F)[C@@H](O)C[C@]2(C)[C@@]1(O)C(=O)CO [dexamethasone, reference compound]",–,–,–,–,–,–,–,0.1 µM
